Here are results for six compounds from patent US20090298708A1, “2'-DEOXY-2'-FLUORO-BETA-D-ARABINONUCLEOSIDE 5'-TRIPHOSPHATES AND THEIR USE IN ENZYMATIC NUCLEIC ACID SYNTHESIS” (priority 2006, published 2009).

The assay concerns the target T1, HIV-1 RT (recombinant) (Human immunodeficiency virus type 1 group M subtype B, UniProt P04585).
T1 construct: Reverse transcriptases (RT): • MMLV-RT (MMLV or MM; source: Fermentas); • HIV-1 RT (recombinant); purchased Worthington Biochemical Corp
In words: Primer extension assay with HIV-1 RT. Format: biochemical. Further details: key to Incorporation of three 2′F-araTTP / 2′F-araCTP (incorporation efficiency) / Enzymatic activity during primer extension reactions: ++++: excellent (no pausing observed); +++: very good (with slight pausing); ++: Good, full-length products with significant pausing; +: significant pausing, no full-length product but at least one 2′F-araN incorporation detected. The conditions noted are these: for Order of efficiency of incorporation / Incorporation of three 2′F-araTTP / 2′F-araCTP (incorporation efficiency) / Enzymatic activity during primer extension reactions: 37° C.; for Order of efficiency of incorporation: DNA template PF22 (T/U triphosphates) or PF24 (C triphosphates), three contiguous units; for Incorporation of three 2′F-araTTP / 2′F-araCTP (incorporation efficiency): DNA template PF22 (2′F-araTTP) or PF24 (2′F-araCTP); for Enzymatic activity during primer extension reactions: plus dATP, dGTP. An excerpt: Primer extension assays were used to assess the incorporation of 2′F-araNTP on the various DNA templates (Table 1). The DNA primer (PF20) was first radioactively labeled at the 5′-hydroxyl terminus with a radioactive phosphorus probe and the enzyme T4 polynucleotide kinase (T4 PNK) (see Example 1 for General Methods). To assess the incorporation of 2′F-araNTPs, the primer and template were annealed, and the nucleoside 5′-triphosphates added in the presence of enzyme under the conditions specified in Table 2. Time points were obtained by analyzing small aliquots from the reaction mixture through polyacryamide gel electrophoresis (PAGE) and autoradiography.
Primer extension assays were used to assess the incorporation efficiency of contiguous 2′F-ara(T/C)TPs compared to 2′F-r(U/C)TP on a DNA template (e.g. PF22 or PF24). To this end, a DNA template (e.g. PF22: FIGS. 15, 16, 17A, 18, 21A; PF24: FIGS. 17B, 19, 20, 21B), primer and the appropriate NTPs (e.g. combination of dATP/dCTP/dGTP/ and NTP, where N=dT, 2′F-araT, 2′F-rU, or rU (FIGS. 15, 16, 17A, 18, 21A); or combination of dATP/dGTP/dTTP/ and NTP, where N=dC, 2′F-araC, 2′F-rC, or rC (FIGS. 17B, 19, 20, 21B)), were incubated in the presence one of MMLV-RT, 9N, HIV or DV polymerase. The protocols and conditions are described in Example 2 and Table 2.
Unless otherwise noticed in the Examples described below, the conditions used in the primer extension assays, such as dNTP concentration, reaction temperatures, concentration of Mg^2+, and reaction buffers (provided by the manufacturers, except for the HIV buffer which was prepared in-house) are shown in Table 2.
Primer extension assays were used to assess the incorporation of 2′F-araTTP on the DNA template (PF22). The DNA primer (PF20) was first radioactively labeled at the 5′-hydroxyl terminus with a radioactive phosphorus probe and the enzyme T4 polynucleotide kinase (T4 PNK) according to the manufacturer's specifications (MBI Fermentas Life Sciences, Burlington, ON). Incorporation of the ^32P label was accomplished in reaction mixtures consisting of DNA substrate (200 pmol), 2 μl loxreaction buffer (Buffer A for forward reaction: 500 mM Tris-HCl, pH 7.6 at 25° C., 100 mM MgCl2, 50 mM DTT, 1 mM spermidine and 1 mM EDTA), 1 μl T4 PNK enzyme solution (10 U/1 μl in a solution of 20 mM Tris-HCl, pH 7.5, 25 mM KCl, 0.1 mM EDTA, 2 mM DTT and 50% glycerol), 6 μl [γ-^32P]-ATP solution (6000 Ci/mmol, 10 mCi/ml; Amersham Biosciences, Inc.) and autoclaved sterile water to a final volume of 20 μl. The reaction mixture was incubated for about 45-60 min at 37° C., followed by a second incubation for 10 min at 95° C. to heat denature and deactivate the kinase enzyme. The solution was purified according to a standard protocol and the isolated yield of 5′-^32P-DNA following gel extraction averages 50%. The pure labeled samples were kept at −20° C. for future use.
Usually 2 or 3 folds of cold (unlabeled) DNA primer were combined with the radioactive primer. Then primer to template was mixed together with the final concentration at 85 nM for the primer and 255 nM for the template (i.e. the primer:template=1:3 molar ratio). The primer and template were heated at 95° C. for 5 min and annealed at 4° C. for at least two hours before use. In an Eppendorf tube, the following reagents, 5× or 10× buffer, nucleoside 5′-triphosphates (DATP, dGTP, dCTP, 2′F-araTTP at the same concentrations; see legend of FIG. 2), water, the primer and template mixture, were added together according to pre-calculated reaction volume (20 μL) and concentrations (see reaction conditions in Table 2). Mineral oil (20 μL) was usually used to prevent evaporation. The reaction mixture was incubated at either 37° C. or 55° C. and one of the various enzymes tested was added to initiate the primer extension reactions. […]

Regarding `Cc1cn([C@H]2C[C@H](O)[C@@H](COP(=O)(O)OP(=O)(O)OP(=O)(O)O)O2)c(=O)[nH]c1=O` [dTTP, reference compound], the “Order of efficiency of incorporation” value was “dTTP > 2′F-araTTP > 2′F-rUTP > UTP”.

On to `O=c1ccn([C@@H]2O[C@H](COP(=O)(O)OP(=O)(O)OP(=O)(O)O)[C@@H](O)[C@H]2F)c(=O)[nH]1` [2′F-rUTP, 1-(2-deoxy-2-fluoro-β-D-ribo-furanosyl)uracil 5′-triphosphate, reference compound], for which the “Order of efficiency of incorporation” value was “dTTP > 2′F-araTTP > 2′F-rUTP > UTP”.

Consider `Nc1ccn([C@@H]2O[C@H](COP(=O)(O)OP(=O)(O)OP(=O)(O)O)[C@@H](O)[C@@H]2F)c(=O)n1` [2′F-araCTP, 1-(2-deoxy-2-fluoro-β-D-arabinofuranosyl)cytosine 5′-triphosphate], for which the “Incorporation of three 2′F-araTTP / 2′F-araCTP (incorporation efficiency)” value was “++++” and the “Order of efficiency of incorporation” value is on record as “dCTP~2′F-rCTP ≧ 2′F-araCTP > CTP”. Further, the “Enzymatic activity during primer extension reactions” value (Example 3, DNA template PF24, 3x 2′F-araCTP, dTTP) was “++++”.

Regarding `Cc1cn([C@@H]2O[C@H](COP(=O)(O)OP(=O)(O)OP(=O)(O)O)[C@@H](O)[C@@H]2F)c(=O)[nH]c1=O` [2′F-araTTP, 1-(2-deoxy-2-fluoro-β-D-arabino-furanosyl)thymine 5′-triphosphate], the “Incorporation of three 2′F-araTTP / 2′F-araCTP (incorporation efficiency)” value is “++++” and the “Order of efficiency of incorporation” value was “dTTP > 2′F-araTTP > 2′F-rUTP > UTP”. Besides, the “substrate property for HIV RT” value (DNA template PF22, compared to 2′F-rUTP and rUTP) was “excellent substrate”. Further, the “Enzymatic activity during primer extension reactions” value (Example 2, DNA template PF22, 3x 2′F-araTTP, dCTP) is on record as “++++”. Take `Nc1ccn([C@H]2C[C@H](O)[C@@H](COP(=O)(O)OP(=O)(O)OP(=O)(O)O)O2)c(=O)n1` [dCTP]: the “Order of efficiency of incorporation” value is reported as “dCTP~2′F-rCTP ≧ 2′F-araCTP > CTP”.

Consider `Nc1ccn([C@@H]2O[C@H](COP(=O)(O)OP(=O)(O)OP(=O)(O)O)[C@@H](O)[C@H]2F)c(=O)n1` [2′F-rCTP, 1-(2-deoxy-2-fluoro-β-D-ribofuranosyl) cytosine 5′-triphosphate, reference compound], for which the “Order of efficiency of incorporation” value is given as “dCTP~2′F-rCTP ≧ 2′F-araCTP > CTP”.
